# Measurements taken from PubChem BioAssay AID1745844 (Carcinogenic Potency Database (CPDB), 2022).
# The source made the active and inactive calls. The rule behind the calls is not given here.
# Test system: rodent lifetime carcinogenesis bioassay, tumor incidence TD50
# Test: chronic cancer bioassays in animals – CPDB, compiled studies (AID 1745844)
smiles,measurement,setting,value
NC(N)=S,carcinogen call,"rat, strain Fischer 344, males, i.p., site: liver, lesion: one or several types, types not named, dosed 60 weeks, study length 60 weeks",negative (inactive)
same,TD50,"rat, strain Hebrew University, males, in drinking water, site: any site (literature study), lesion: several types, types named in the paper, dosed 113 weeks, study length 113 weeks",27.5 mg/kg/day
same,TD50,"rat, strain Hebrew University, males, in drinking water, site: auricular region, lesion: epidermoid carcinoma, dosed 113 weeks, study length 113 weeks",93.5 mg/kg/day
same,TD50,"rat, strain Hebrew University, males, in drinking water, site: eyelid, lesion: epidermoid carcinoma, dosed 113 weeks, study length 113 weeks",93.5 mg/kg/day
same,TD50,"rat, strain Hebrew University, males, several routes, site: any site (literature study), lesion: several types, types named in the paper, dosed 95 weeks, study length 95 weeks",50.8 mg/kg/day
same,TD50,"rat, strain Hebrew University, males, several routes, site: auricular region, lesion: epidermoid carcinoma, dosed 95 weeks, study length 95 weeks",104 mg/kg/day
same,TD50,"rat, strain Hebrew University, males, several routes, site: eyelid, lesion: epidermoid carcinoma, dosed 95 weeks, study length 95 weeks",225 mg/kg/day
same,TD50,"rat, strain Osborne-Mendel, females, in feed, site: any site (literature study), lesion: benign tumor, dosed 104 weeks, study length 104 weeks",15 mg/kg/day (inactive)
same,carcinogen call,"rat, strain Osborne-Mendel, females, in feed, site: any site (literature study), lesion: malignant tumor, dosed 104 weeks, study length 104 weeks",negative (inactive)
same,TD50,"rat, strain Osborne-Mendel, females, in feed, site: any site (literature study), lesion: several types, types named in the paper, dosed 113 weeks, study length 113 weeks",16.2 mg/kg/day (inactive)
same,carcinogen call,"rat, strain Osborne-Mendel, females, in feed, site: liver, lesion: one or several types, types not named, dosed 104 weeks, study length 104 weeks",negative (inactive)
same,carcinogen call,"rat, strain Osborne-Mendel, females, in feed, site: liver, lesion: one or several types, types not named, dosed 113 weeks, study length 113 weeks",negative (inactive)
same,TD50,"rat, strain Osborne-Mendel, males, in feed, site: any site (literature study), lesion: benign tumor, dosed 104 weeks, study length 104 weeks",64.7 mg/kg/day (inactive)
same,carcinogen call,"rat, strain Osborne-Mendel, males, in feed, site: any site (literature study), lesion: malignant tumor, dosed 104 weeks, study length 104 weeks",negative (inactive)
same,TD50,"rat, strain Osborne-Mendel, males, in feed, site: any site (literature study), lesion: several types, types named in the paper, dosed 113 weeks, study length 113 weeks",46.1 mg/kg/day (inactive)
same,carcinogen call,"rat, strain Osborne-Mendel, males, in feed, site: liver, lesion: one or several types, types not named, dosed 104 weeks, study length 104 weeks",negative (inactive)
same,carcinogen call,"rat, strain Osborne-Mendel, males, in feed, site: liver, lesion: one or several types, types not named, dosed 113 weeks, study length 113 weeks",negative (inactive)
Cc1ccc(NC(N)=O)cc1,carcinogen call,"mouse, strain C57BL/6, females, in feed, site: liver, lesion: hepatocellular carcinoma, dosed 52 weeks, study length 69 weeks",negative (inactive)
same,carcinogen call,"mouse, strain C57BL/6, females, in feed, site: lung, lesion: alveolar/bronchiolar adenoma, dosed 52 weeks, study length 69 weeks",negative (inactive)
same,TD50,"mouse, strain C57BL/6, males, in feed, site: all sites, lesion: malignant lymphoma, histiocytic type, dosed 52 weeks, study length 69 weeks",265 mg/kg/day
same,TD50,"mouse, strain C57BL/6, males, in feed, site: all sites, lesion: malignant lymphoma, dosed 52 weeks, study length 69 weeks",206 mg/kg/day
same,TD50,"mouse, strain C57BL/6, males, in feed, site: liver, lesion: hepatocellular carcinoma, dosed 52 weeks, study length 69 weeks",722 mg/kg/day (inactive)
same,carcinogen call,"mouse, strain C57BL/6, males, in feed, site: lung, lesion: alveolar/bronchiolar adenoma, dosed 52 weeks, study length 69 weeks",negative (inactive)
same,TD50,"mouse, strain C57BL/6, males, in feed, site: mesenteric lymph node, lesion: malignant lymphoma, histiocytic type, dosed 52 weeks, study length 69 weeks",626 mg/kg/day
same,TD50,"mouse, strain C57BL/6, males, in feed, site: multiple organs, lesion: malignant lymphoma, histiocytic type, dosed 52 weeks, study length 69 weeks",441 mg/kg/day
same,carcinogen call,"rat, strain Fischer 344, females, in feed, site: liver, lesion: one or several types, types not named, dosed 52 weeks, study length 69 weeks",negative (inactive)
same,TD50,"rat, strain Fischer 344, males, in feed, site: liver, lesion: hepatocellular carcinoma, dosed 52 weeks, study length 69 weeks",699 mg/kg/day (inactive)
